Legend:
PrP^Sc [1] = conditions: for binding to PrP^Sc compared among peptide reagents: pH 4
PrP^Sc [2] = target: PrP^Sc (Mus musculus, UniProt P04925)
PrP^Sc [3] = system: PrP^Sc
PrP^Sc [4] = system: PrP^Sc; remark: listed apart in the source

Sequence of PrP^Sc (Mus musculus, UniProt P04925) (P04925 23-230 limits assumed): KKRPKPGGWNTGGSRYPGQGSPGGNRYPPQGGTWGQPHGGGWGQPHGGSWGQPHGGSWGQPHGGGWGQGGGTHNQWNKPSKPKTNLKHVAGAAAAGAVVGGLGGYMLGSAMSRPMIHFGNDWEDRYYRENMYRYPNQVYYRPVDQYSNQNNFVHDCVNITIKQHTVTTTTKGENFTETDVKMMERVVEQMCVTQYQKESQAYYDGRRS

Substance | pH of optimal binding to PrP^Sc (PrP^Sc [1]) | binding to PrP^Sc compared among peptide reagents (PrP^Sc [1]) | also measured
(GGG)KKKKKKKK [SEQ ID NO:85] | 8 | bound equally well | 
(GGG)KKRPKPGG [SEQ ID NO:68] | 8 | bound equally well | binding to PrP^Sc in infected mouse brain homogenate (FIG. 4, lane 5) (PrP^Sc [2]): strong binding
(GGG)KKRPKPGGWNTGG [SEQ ID NO:67] |  |  | PrP^Sc eluted from peptide reagent (PrP^Sc [3]): eluted all; PrP^Sc dissociated from peptide reagent (PrP^Sc [4]): virtually all
(GGG)QWNKPSKPKTN [SEQ ID NO:14] | 8 | bound equally well | 
GGGQWNKPSK*KTN, wherein * is N-(cyclopropylmethyl)glycine [SEQ ID NO:111] |  |  | PrP^Sc dissociated from peptide reagent with NaCl (PrP^Sc [4]): little was dissociated; tightness of PrP^Sc binding to peptide reagent (PrP^Sc [4]): bound most tightly

Reference: patent publication US20090099343A1 (priority 2005, published 2009)
